{
  "source": "patent US20250177292A1",
  "about": "“METHOD FOR TREATMENT OF PARKINSON'S DISEASE” (NeuroDerm, Ltd., priority 2013, published 2025)",
  "key": {"[1]": {"tested_on": "pigs", "conditions": "pig, in vivo, sc", "procedure": "The effect of carbidopa on levodopa local toxicity was investigated in pigs: solutions containing 6% LD and 0, 0.5 or 1% CD with the respective amount of arginine (13.5, 14.2 or 14.8%, respectively) were continuously administered SC to pigs at 0.16 ml/h×24 h. Each formulation was administered to 2 pigs. Skin samples were collected 8±1 days thereafter."}, "[2]": {"tested_on": "pig skin", "test": "Continuous administration into full-thickness pig skin ex vivo (FIG. 1B)", "conditions": "7% LD/arginine solution with 2% CD, 0.08 ml/h×18 h, 37° C.", "description": "(§1) FIGS. 1A-1B show the effect of carbidopa on the stability of levodopa in vitro and ex vivo: 1A. 6% by weight levodopa and arginine solution with various concentrations (2, 1.5, 1, 0.5%) of carbidopa or no carbidopa were tested for physical stability in vitro. […] 1B. 7% by weight levodopa and arginine solution, with or without 2% carbidopa by weight, continuously administered in to the subcutaneous tissue of a 5×5 cm fresh, full-thickness pig skin.\nA 7% LD/arginine solution, with or without 2% CD, was continuously administered at 0.08 ml/h×18 h, 37° C. into a 5×5 cm fresh, full-thickness pig skin."}, "[3]": {"test": "Effect of carbidopa on stability of levodopa formulations in vitro (Tables F, G, FIG. 1A)", "format": "physicochemical", "description": "as §1, with “6%” for “FIGS. 1A-1B show the effect of carbidopa on the stability of levodopa in vitro and ex vivo: 1A. 6%”\nThe effect of carbidopa on levodopa formulations was investigated. Levodopa (LD) formulations were prepared with 0, 0.5, 1, 1.5 and 2% by weight carbidopa (CD) and a constant concentration of arginine.\nIn an additional experiment, LD formulations were prepared with 0, 0.5, 1 and 2% CD and respective concentrations of arginine."}, "[4]": {"test": "Stability of carbidopa formulations with and without levodopa (Table H)", "format": "physicochemical", "conditions": "in the presence of LD", "from_the_text": "The effect of levodopa on the stability of carbidopa was investigated. Table H indicates results.\nIt appears that LD may protect CD from degradation."}, "[5]": {"conditions": "cited from earlier work"}, "[6]": {"conditions": "cited from earlier work", "remark": "listed apart in the source"}, "[7]": {"test": "Plasma LD, CD and 3-OMD during continuous SC LD/CD with oral entacapone in human volunteers (FIG. 6)", "format": "in vivo, human", "description": "A single center, double-blind, randomized, placebo-controlled, study was conducted with six healthy Caucasian males volunteers, aged 18-40 years old. LD (6%)/CD (1.5%) was administered at a rate of […], corresponding to 360 mg of LD and 90 mg of CD per 24 hours. […] Plasma LD, CD and 3-OMD concentrations were quantified at pre-determined time points."}, "[8]": {"test": "Titration with acetic or lactic acid: pH and physical stability (Table D)", "format": "physicochemical", "source_text": "Formulations containing 6/1.5% and 5.4/1.5% LD/CD and varying L-Arg concentrations were titrated with acetic acid (100%) or lactic acid (85%), to study the effect of pH and L-Arg concentration on the physical stability of the solutions (Table D)."}},
  "data": [
    {"smiles": "C[C@@](Cc1ccc(O)c(O)c1)(NN)C(=O)O", "note": "[CD, carbidopa]", "values": [
      {"measurement": "Local levodopa dependent subcutaneous toxicity", "setting": "[1]", "result": "reduces the severity and extent"},
      {"measurement": "Oxidation of LD ex vivo (black by-products)", "setting": "[2]", "result": "lack of black by-products formation"},
      {"measurement": "Oxidation of LD ex vivo (black by-products)", "setting": "[2]; listed as carbidopa", "result": "inhibition of oxidation"},
      {"measurement": "Effect on the chemical stability of levodopa", "setting": "[3]; Table F", "result": "does not have a significant effect"},
      {"measurement": "Dark yellow color formation", "setting": "[3]; in the absence of air (N2 in the head space), 0.5% carbidopa", "result": "sufficient to inhibit this color formation"},
      {"measurement": "Dark yellow color formation", "setting": "[3]; in the presence of air, 6% levodopa and arginine solution with 0.5-2% carbidopa", "result": "prevented dark yellow color formation"},
      {"measurement": "Sensitivity of CD to oxidation and degradation", "setting": "[4]", "result": "more stable in the presence of LD"}
    ]},
    {"smiles": "CCN(CC)C(=O)/C(C#N)=C/c1cc(O)c(O)c([N+](=O)[O-])c1", "note": "[E, entacapone]", "values": [
      {"measurement": "Highest increase in the total amount of levodopa", "setting": "[5]; after 400 mg dose of entacapone, oral levodopa and carbidopa", "result": "about 33%"},
      {"measurement": "Total amount of carbidopa in blood", "setting": "[5]; high doses of entacapone (400 mg and 800 mg)", "result": "decrease the total amount of carbidopa in blood"},
      {"measurement": "Increase in the level of levodopa", "setting": "[6]; according to Nyholm et al.", "result": "up to 33%"},
      {"measurement": "Reduction of the dose of levodopa and carbidopa maintaining the desired blood level of levodopa", "setting": "[6]; oral 200 mg entacapone, intraintestinal infusion of levodopa and carbidopa", "result": 20, "unit": "%"},
      {"measurement": "Steady state of plasma concentrations of LD", "setting": "[7]; 24 hours after LD/CD infusion initiation, 9 hours after entacapone dosing initiation", "result": "did not reach a steady state"},
      {"measurement": "Plasma concentrations of 3-OMD", "setting": "[7]; human, in vivo", "result": "significantly reduced"},
      {"measurement": "Blood level of levodopa", "setting": "[7]; male, human, in vivo", "result": "about 620 ng/ml"},
      {"measurement": "Increase of the blood level of levodopa", "setting": "[7]; male, human, in vivo", "result": "more than 40%"}
    ]},
    {"smiles": "O=C1O[C@H]([C@@H](O)CO)C(O)=C1O", "note": "[ascorbic acid]", "values": [
      {"measurement": "Reduction of the pH as compared to Na-ascorbate", "setting": "[8]", "result": "0.1-0.15 units"}
    ]}
  ]
}
